In ChEMBL document CHEMBL6083209, “Pyridazinone-based derivatives as anticancer agents endowed with anti-microbial activity: molecular design, synthesis, and biological investigation” (RSC Med Chem, 2024):
≈ marks a conversion by molar mass, not a printed value.

How the values were obtained:
Staphylococcus aureus [1] = test: Antimicrobial activity against Staphylococcus aureus ATCC 29213 by broth microdilution method
Escherichia coli = test: Antimicrobial activity against Escherichia coli ATCC 25922 by broth microdilution method
Candida albicans = test: Antimicrobial activity against Candida albicans ATCC 10231 by broth microdilution method
Staphylococcus aureus [2] = test: Antimicrobial activity against Staphylococcus aureus; assay type: functional

Compound	MIC (Staphylococcus aureus [1]) [µg/mL]	MIC (Escherichia coli) [µg/mL]	MIC (Candida albicans) [µg/mL]	MIC (Staphylococcus aureus [2]) [µg/mL]
O=c1ccc(-c2ccc(NC(=S)Nc3ccc(Br)cc3)cc2)n[nH]1	128 (≈ 319 µM)	512 (≈ 1280 µM)	256 (≈ 638 µM)	–
O=C1CCC(c2ccc(NC(=S)NC(=O)c3ccc(Br)cc3)cc2)=NN1	512 (≈ 1190 µM)	256 (≈ 594 µM)	512 (≈ 1190 µM)	–
O=C(NC(=S)Nc1ccc(/C=C/c2ccc(=O)[nH]n2)cc1)c1ccc(Cl)c(Cl)c1	256 (≈ 575 µM)	1020 (≈ 2300 µM)	512 (≈ 1150 µM)	–
O=C(Nc1ccc(-c2ccc(=O)[nH]n2)cc1)Nc1cccc(Br)c1	128 (≈ 332 µM)	512 (≈ 1330 µM)	> 1020	–
O=c1ccc(-c2ccc(NS(=O)(=O)c3cccc(Br)c3)cc2)n[nH]1	512 (≈ 1260 µM)	256 (≈ 630 µM)	64 (≈ 158 µM)	–
O=C(Nc1ccc(Br)cc1)Nc1ccc(-c2ccc(=O)[nH]n2)cc1	> 1020	> 1020	512 (≈ 1330 µM)	–
N#Cc1ccc(Oc2cccc(NC(=O)Nc3ccc(Cl)c(C(F)(F)F)c3)c2)cc1Cl	–	–	–	0.5 (≈ 1.07 µM)
O=C(NC(=S)Nc1ccc(/C=C/c2ccc(=O)[nH]n2)cc1)c1cccc(Br)c1	1020 (≈ 2250 µM)	256 (≈ 562 µM)	512 (≈ 1120 µM)	–
O=c1ccc(-c2ccc(NS(=O)(=O)c3ccc(Cl)c(Cl)c3)cc2)n[nH]1	512 (≈ 1290 µM)	1020 (≈ 2580 µM)	256 (≈ 646 µM)	–
N#Cc1ccc(Oc2cccc(NC(=O)Nc3ccc(Cl)c(C(F)(F)F)c3)c2)c(F)c1	–	–	–	0.5 (≈ 1.11 µM)
O=C(NC(=S)Nc1ccc(-c2ccc(=O)[nH]n2)cc1)c1ccc(Cl)c(Cl)c1	> 1020	> 1020	512 (≈ 1220 µM)	–
O=c1ccc(-c2ccc(NC(=S)Nc3ccc(Cl)c(Cl)c3)cc2)n[nH]1	128 (≈ 327 µM)	512 (≈ 1310 µM)	32 (≈ 81.8 µM)	–
O=C(Nc1ccc(Cl)c(C(F)(F)F)c1)C(CCl)C(=O)Nc1ccc(Cl)c(C(F)(F)F)c1	–	–	–	0.5 (≈ 0.985 µM)
O=C(NC(=S)Nc1ccc(-c2ccc(=O)[nH]n2)cc1)c1ccc(Cl)c(F)c1	> 1020	> 1020	512 (≈ 1270 µM)	–
CC(=O)N1CCN(c2ccc(OCC3COC(Cn4ccnc4)(c4ccc(Cl)cc4Cl)O3)cc2)CC1 (stereo not given) [KETOCONAZOLE]	–	–	2 (≈ 3.76 µM)	–
O=c1ccc(-c2ccc(NS(=O)(=O)c3ccc(F)c(Cl)c3)cc2)n[nH]1	128 (≈ 337 µM)	256 (≈ 674 µM)	256 (≈ 674 µM)	–
O=c1ccc(-c2ccc(NC(=S)Nc3cccc(Cl)c3)cc2)n[nH]1	128 (≈ 359 µM)	256 (≈ 717 µM)	16 (≈ 44.8 µM)	–
O=C(NC(=S)Nc1ccc(-c2ccc(=O)[nH]n2)cc1)c1ccc([N+](=O)[O-])cc1	> 1020	> 1020	512 (≈ 1290 µM)	–
O=C(Nc1ccc2c(c1)OC(F)(F)O2)Nc1ccc(Cl)c(C(F)(F)F)c1	–	–	–	0.3 (≈ 0.76 µM)
O=c1ccc(/C=C/c2ccc(NS(=O)(=O)c3ccc(Cl)c(Cl)c3)cc2)n[nH]1	512 (≈ 1210 µM)	512 (≈ 1210 µM)	512 (≈ 1210 µM)	–
O=C(NC(=S)Nc1ccc(-c2ccc(=O)[nH]n2)cc1)c1ccc(Br)cc1	128 (≈ 298 µM)	128 (≈ 298 µM)	512 (≈ 1190 µM)	–
O=c1ccc(/C=C/c2ccc(NS(=O)(=O)c3cccc(Br)c3)cc2)n[nH]1	1020 (≈ 2370 µM)	512 (≈ 1180 µM)	512 (≈ 1180 µM)	–
O=C1CCC(c2ccc(NC(=S)NC(=O)c3ccc(Cl)cc3)cc2)=NN1	512 (≈ 1320 µM)	256 (≈ 662 µM)	512 (≈ 1320 µM)	–

Compound	MIC (Staphylococcus aureus [1]) [µg/mL]	MIC (Escherichia coli) [µg/mL]	MIC (Candida albicans) [µg/mL]	MIC (Staphylococcus aureus [2]) [µg/mL]
O=c1ccc(-c2ccc(NC(=S)Nc3cccc(F)c3)cc2)n[nH]1	512 (≈ 1500 µM)	> 1020	64 (≈ 188 µM)	–
O=c1ccc(-c2ccc(NC(=S)Nc3cccc(Br)c3)cc2)n[nH]1	128 (≈ 319 µM)	1020 (≈ 2550 µM)	32 (≈ 79.7 µM)	–
O=C(Nc1ccc(Oc2ccc(=O)[nH]n2)cc1)Nc1ccc(Cl)c(Cl)c1	–	–	–	0.5 (≈ 1.28 µM)
O=C(NC(=S)Nc1ccc(-c2ccc(=O)[nH]n2)cc1)c1c(Cl)cc(Cl)cc1Cl	128 (≈ 282 µM)	256 (≈ 564 µM)	512 (≈ 1130 µM)	–
N#Cc1ccc(Oc2ccc3cccc(NC(=O)Nc4ccc(Cl)c(C(F)(F)F)c4)c3c2)cc1	–	–	–	1 (≈ 2.08 µM)
O=c1ccc(-c2ccc(NS(=O)(=O)c3cccc(F)c3)cc2)n[nH]1	512 (≈ 1480 µM)	1020 (≈ 2970 µM)	256 (≈ 741 µM)	–
O=C(NC(=S)Nc1ccc(Cl)cn1)c1ccc(N2CCCCC2)c([N+](=O)[O-])c1	–	–	–	0.06 (≈ 0.143 µM)
CNC(C)[C@@H]1CC[C@@H](N)[C@@H](O[C@H]2[C@H](O)[C@@H](O[C@H]3OC[C@](C)(O)[C@H](NC)[C@H]3O)[C@H](N)C[C@@H]2N)O1.CN[C@@H]1[C@@H](O)[C@@H](O[C@@H]2[C@@H](O)[C@H](O[C@H]3O[C@H](C(C)N)CC[C@H]3N)[C@@H](N)C[C@H]2N)OC[C@]1(C)O.CN[C@@H]1[C@@H](O)[C@@H](O[C@@H]2[C@@H](O)[C@H](O[C@H]3O[C@H](CN)CC[C@H]3N)[C@@H](N)C[C@H]2N)OC[C@]1(C)O (stereo not given in full)	0.5	–	–	–
O=c1ccc(-c2ccc(NS(=O)(=O)c3cccc(Cl)c3)cc2)n[nH]1	256 (≈ 708 µM)	1020 (≈ 2830 µM)	256 (≈ 708 µM)	–
O=c1ccc(-c2ccc(NS(=O)(=O)c3ccc(Cl)cc3)cc2)n[nH]1	128 (≈ 354 µM)	256 (≈ 708 µM)	256 (≈ 708 µM)	–
O=c1ccc(-c2ccc(NC(=S)Nc3c(Cl)cc(Cl)cc3Cl)cc2)n[nH]1	128 (≈ 301 µM)	256 (≈ 601 µM)	64 (≈ 150 µM)	–
O=c1ccc(/C=C/c2ccc(NC(=S)Nc3ccc(Cl)c(Cl)c3)cc2)n[nH]1	128 (≈ 307 µM)	512 (≈ 1230 µM)	512 (≈ 1230 µM)	–
O=C1CCC(c2ccc(NC(=S)NC(=O)c3ccc([N+](=O)[O-])cc3)cc2)=NN1	512 (≈ 1290 µM)	256 (≈ 644 µM)	512 (≈ 1290 µM)	–
O=C(NC(=S)Nc1ccc(-c2ccc(=O)[nH]n2)cc1)c1cccc(Br)c1	16 (≈ 37.3 µM)	256 (≈ 596 µM)	512 (≈ 1190 µM)	–
O=C(Nc1ccc(Oc2ccc(=O)[nH]n2)cc1)Nc1ccc(Cl)c(C(F)(F)F)c1	–	–	–	> 128
O=C(NC(=S)Nc1ccc(-c2ccc(=O)[nH]n2)cc1)c1ccc(F)c(Cl)c1	512 (≈ 1270 µM)	256 (≈ 635 µM)	512 (≈ 1270 µM)	–
O=C(Nc1ccc(F)cc1)Nc1ccc(-c2ccc(=O)[nH]n2)cc1	256 (≈ 789 µM)	256 (≈ 789 µM)	> 1020	–
O=C(NC(=S)Nc1ccc(-c2ccc(=O)[nH]n2)cc1)c1ccc(F)cc1	256 (≈ 695 µM)	256 (≈ 695 µM)	512 (≈ 1390 µM)	–
O=C(NC(=S)Nc1ccc(-c2ccc(=O)[nH]n2)cc1)c1cccc(F)c1	128 (≈ 347 µM)	256 (≈ 695 µM)	512 (≈ 1390 µM)	–
O=C(NC(=S)Nc1ccc(-c2ccc(=O)[nH]n2)cc1)c1ccccc1	256 (≈ 731 µM)	256 (≈ 731 µM)	512 (≈ 1460 µM)	–
O=C1CCC(c2ccc(NC(=S)NC(=O)c3ccccc3)cc2)=NN1	512 (≈ 1450 µM)	256 (≈ 726 µM)	512 (≈ 1450 µM)	–
O=C(NC(=S)Nc1ccc(-c2ccc(=O)[nH]n2)cc1)c1ccc(Cl)cc1	256 (≈ 665 µM)	512 (≈ 1330 µM)	512 (≈ 1330 µM)	–
